Data taken from BindingDB's records for doi:10.1021/jm970373j (Parke-Davis Pharmaceutical Research, 1998).

Target: Gastrin/cholecystokinin type B receptor (Cavia porcellus)
Experiment: Compound was evaluated for functional activity on Cholecystokinin type B receptor (CCK-B) receptor carried out on guinea pig stomach cells.

IC50 [nM]	Compound
22	CCOC(=O)c1cccc(NC(=O)NNc2nc3ccccc3c(=O)n2-c2cccc(OC(C)C)c2)c1 [N-(3-ethylesterbenzoicacid)-2-[3,4-dihydro-3-[(3-Isopropoxy)phenyl]-4-oxo-2-quinazolinyl]hydrazinecarboxamide]
33	CCOC(=O)c1cccc(NC(=O)NNc2nc3ccccc3c(=O)n2-c2ccc(Cl)cc2)c1 [N-(3-ethylesterbenzoicacid)-2-[3,4-dihydro-3-[(4-chloro)-phenyl]-4-oxo-2-quinazolinyl]hydrazinecarboxamide]
54	CC(C)Oc1cccc(-n2c(NNC(=O)Nc3ccc(Br)cc3)nc3ccccc3c2=O)c1 [N-(4-Bromophenyl)-2-[3,4-dihydro-3-[3-(1-methylethoxy)phenyl]-4-oxo-2-quinazolinyl]hydrazinecarboxamide]
